Data taken from patent US9249148B2, “Tris(hetero)arylpyrazoles and use thereof” (AICURIS GMBH & CO. KG, priority 2012, dated 2016).

Key:
Format in all cases: cell-based
HIV-1LAI wildtype = experiment: alamarBlue Viability Assay with HIV-1LAI-infected MT4 cells; details: Human immunodeficiency virus 1, 10% FBS
Description: For starting a 96-well MTP, 3 million PBLs are pelleted, suspended in 1 ml RPMI 1640 medium/10% FBS/2 mM L-glutamine/1% Pen/Strep and incubated for 2 hours at 37° C. with a suitable quantity of the relevant HIV-1LAI (NIH AIDS Research & Reference Reagent Program, Germantown, USA) (pellet infection). Non-adsorbed viruses are then washed out, and the infected cells pelleted again and suspended in 18 ml RPMI 1640 medium/10% FBS/2 mM L-glutamine/1% Pen/Strep/Interleukin-2 (40 U/ml). From this, 180 μl per well is pipetted into a 96-well MTP to 20 μl of test substance at a suitable level of dilution. Alternatively, the HIV is added after preparation of the substance dilutes in the MTP together with the cells, and is not washed out (supernatant infection). In order to avoid edge effects, the edge wells of the MTP are not used for substance dilutions. The second vertical row of the MTP contains only infected cells (virus control) and the eleventh vertical row only non-infected cells (cell control), each in RPMI 1640 medium/10% FBS/2 mM L-glutamine/1% Pen/Strep/Interleukin-2 (40 U/ml). The remaining wells of the MTP contain the compounds in accordance with the invention in various concentrations, starting from the third vertical row, from which the test substances are diluted in 3-step sequences up to the tenth vertical row by a factor of 3^7. The test substances are dissolved in DMSO; the final DMSO concentration in the test preparation is 1%. The test samples are incubated for 5 days at 37° C./5% CO2. After 5 to 7 days, 50 μl of cell-free supernatant is removed from each well to determine its p24 content using p24 ELISA (HIV-1 p24CA Antigen Capture Assay Kit, NCI-Frederick Cancer Research and Development Center, Frederick, USA). From the resulting values of the photometric analysis (450/620 nm), the EC50 values of the test substances are determined from the resulting dose-response curves using the Prism4 software (GraphPad, San Diego, Calif.) as the concentration of treated infected cells, where the p24 quantity is 50% of the untreated infected cells.
Alternatively, MT4 cells are used in place of PBLs for testing the test substances. HIV-1LAI-infected MT4 cells (MOI 0.01, supernatant infection) are incubated in accordance with the procedure described above in RPMI 1640 medium using 2% or 10% FKS/2 mM L-glutamine/1% Pen/Strep in the presence of the test substances for 5 days at 37° C./5% CO2 (10 μl diluted substance and 90 μl cells/virus per well). 10 μl alamarBlue (Invitrogen, Karlsruhe, Germany) is then added per well and the MTPs are incubated for 3 hours at 37° C. before fluorimetric evaluation is performed (544/590 nm). Using quattroWorkflow software (Quattroresearch, Martinsried, Germany), the EC50 values of the test substances are determined from the resulting dose-response curves as the concentration of treated infected cells in which the fluorescence is 50% of that of the untreated, non-infected cells.

HIV-1NL4-3 K103N-Y181C = experiment: Luminescence Reduction Assay, luciferase reporter virus with resistance mutations in MT4 cells; details: Human immunodeficiency virus 1, MT4, read-out: EC50 (μM) MT4 cells HIV-1NL4-3 K103N-Y181C 2% FBS
Source text: (§1) For this assay, HIV-1NL4-3 reporter viruses are used which carry the luciferase164 gene (lu164) in place of the nef gene. The viruses are generated by transfection of 293T cells with the corresponding proviral pNL4-3 plasmid (Lipofectamine Reagent, Invitrogen, Karlsruhe, Germany). Starting from the proviral plasmid DNA, viruses with defined resistance mutations (single or combined) are produced in the reverse transcriptase gene using the “QuikChange II XL Site-Directed Mutagenesis Kit” (Stratagene, Cedar Creek, Tex., USA). Resistance mutations include, among others: L74V, A98G, A98S, L100I, K101E, K103N, V106A, V106I, V106M, V108I, V108A, E138K, V179I, V179D, V179E, Y181C, Y181I, Y188L, G190A, G1905, H221Y, P225H, F227C, F227L, F227V, M230I, M230L, L234I, P236L, N348I, T369A, T369I, T369V. MT4 cells infected with these reporter viruses (NIH AIDS Research and Reference Reagent Program) secrete luciferase into the medium, which enables the luminometric quantification of the virus replication.
(§2) For starting a 96-well MTP, 3 million MT4 cells are pelleted, suspended in 1 ml RPMI 1640 medium without phenol red (Invitrogen, Karlsruhe, Germany)/10% FBS/2 mM L-glutamine/1% Pen/Strep (Invitrogen, Karlsruhe, Germany), and incubated for 2 hours at 37° C. with a suitable quantity of the relevant HIV-1NL4-3 reporter virus (pellet infection). Non-adsorbed viruses are then washed out, and the infected cells are pelleted again and suspended in 8 ml RPMI 1640 medium without phenol red/2% or 10% FBS/2 mM L-glutamine/1% Pen/Strep. From this, 90 μl per well is pipetted into a white 96-well MTP to 10 μl of test substance at a suitable level of dilution. In order to avoid edge effects, the edge wells of the MTP are not used for substance dilutions. The second vertical row of the MTP contains only infected cells (virus control) and the eleventh vertical row only non-infected cells (cell control), each in RPMI 1640 medium without phenol red/2% or 10% FBS/2 mM L-glutamine/1% Pen/Strep. The remaining wells of the MTP contain the compounds in accordance with the invention in various concentrations, starting from the third vertical row, from which the test substances are diluted in 3-step sequences up to the tenth vertical row by a factor of 3^7. The test substances are dissolved in DMSO; the final DMSO concentration in the test formulation is 1%.

HIV-1NL4-3 wildtype = experiment: Luminescence Reduction Assay, luciferase reporter virus in MT4 cells; details: Human immunodeficiency virus 1, MT4, read-out: EC50 (μM) MT4 cells HIV-1NL4-3 wildtype 2% FBS
Source text: as §1, §2

SMILES | EC50 (HIV-1LAI wildtype) | EC50 (HIV-1NL4-3 K103N-Y181C) | EC50 (HIV-1NL4-3 wildtype)
O=C1NCc2c1cccc2-c1cc(-c2cc(Cl)cc(OC(F)F)c2)n(-c2cccnc2)n1 [Example 18, 4-{5-[3-chloro-5-(difluoromethoxy)phenyl]-1-(pyridine-3-yl)-1H-pyrazole-3-yl}-2,3-dihydro-1H-isoindole-1-one] | 0.0177 µM | 0.013 µM | 0.0056 µM
O=C1NCc2c1ccnc2-c1cc(-c2cc(Br)cc(OC(F)F)c2)n(-c2cccnc2)n1 [Example 19, 4-{5-[3-bromo-5-(difluoromethoxy)phenyl]-1-(pyridine-3-yl)-1H-pyrazole-3-yl}-2,3-dihydro-1H-pyrrolo[3,4-c]pyridine-1-one] | 0.0028 µM | 0.0019 µM | 0.0003 µM
O=C1NCc2c1ccnc2-c1cc(-c2cc(Br)cc(OC(F)F)c2)n(-c2ccnc(Cl)c2)n1 [Example 20, 4-{5-[3-bromo-5-(difluoromethoxy)phenyl]-1-(2-chloropyridine-4-yl)-1H-pyrazole-3-yl}-2,3-dihydro-1H-pyrrolo[3,4-c]pyridine-1-one] | 0.0118 µM | 0.004 µM | 0.001 µM
O=C1NCc2c1cccc2-c1cc(-c2cc(Br)cc(OC(F)F)c2)n(-c2cccnc2)n1 [Example 21, 4-{5-[3-bromo-5-(difluoromethoxy)phenyl]-1-(pyridine-3-yl)-1H-pyrazole-3-yl}-2,3-dihydro-1H-isoindole-1-one] | 0.0325 µM | 0.0283 µM | 0.0063 µM
Cc1cc(F)cc(-c2cc(-c3nccc4c3CNC4=O)nn2-c2ccc(F)c(Cl)c2)c1 [Example 22] | 0.0245 µM | 0.0077 µM | 0.0009 µM
Cc1cc(F)cc(-c2cc(-c3cccc4c3CNC4=O)nn2-c2ccc(F)c(Cl)c2)c1 [Example 23] | 0.0983 µM | 0.0565 µM | 0.015 µM
N#Cc1cc(-n2nc(-c3nccc4c3CNC4=O)cc2-c2cc(F)cc(Cl)c2)ccc1F [Example 24] | 0.0006 µM | 0.0003 µM | 0.0002 µM
N#Cc1cc(-n2nc(-c3cccc4c3CNC4=O)cc2-c2cc(F)cc(Cl)c2)ccc1F [Example 25] | 0.0107 µM | 0.0112 µM | 0.0009 µM
O=C1NCc2c1ccnc2-c1cc(-c2cc(F)cc(Cl)c2)n(-c2cccc(Cl)c2)n1 [Example 26] | 0.0153 µM | 0.0208 µM | 0.0017 µM
COc1cc(OC(F)(F)F)cc(-c2cc(-c3nccc4c3CNC4=O)nn2-c2ccc(F)c(Cl)c2)c1 [Example 27] | 0.148 µM | 0.0219 µM | 0.0384 µM
Cc1ccc(-n2nc(-c3nccc4c3CNC4=O)cc2-c2cc(F)cc(Cl)c2)cc1Cl [Example 28] | 0.0876 µM | 0.0291 µM | 0.0172 µM
O=c1[nH][nH]c2c(-c3cc(-c4cc(F)cc(Cl)c4)n(-c4ccc(F)c(Cl)c4)n3)cccc12 [Example 29] | 2.06 µM | 1.22 µM | 0.39 µM
O=C1NCc2c1ccnc2-c1cc(-c2cc(Cl)cc(C(F)(F)F)c2)n(-c2ccc(F)c(Cl)c2)n1 [Example 30] | 0.0881 µM | 0.011 µM | 0.0075 µM
O=C1NCc2c1ccnc2-c1cc(-c2cncc(Cl)c2)n(-c2ccc(F)c(Cl)c2)n1 [Example 31] | 0.0041 µM | 0.0024 µM | 0.0008 µM
O=C1NCc2c1cccc2-c1cc(-c2cncc(Cl)c2)n(-c2ccc(F)c(Cl)c2)n1 [Example 32] | 0.0273 µM | 0.0383 µM | 0.0069 µM
O=C1NCc2c1ccnc2-c1cc(-c2cccc(F)c2F)n(-c2ccc(F)c(Cl)c2)n1 [Example 33] | 0.0641 µM | 0.061 µM | 0.0227 µM
O=C1NCc2c1cccc2-c1cc(-c2cccc(F)c2F)n(-c2ccc(F)c(Cl)c2)n1 [Example 34] | 0.75 µM | 0.458 µM | 0.131 µM
N#Cc1cccc(-c2cc(-c3nccc4c3CNC4=O)nn2-c2ccc(F)cc2)c1 [Example 35] | 0.15 µM | 0.0317 µM | 0.0593 µM
N#Cc1cccc(-c2cc(-c3cccc4c3CNC4=O)nn2-c2ccc(F)cc2)c1 [Example 36] | 0.449 µM | 0.0675 µM | 0.0848 µM
O=C1NCc2c1ccnc2-c1cc(-c2cccc(Cl)c2)n(-c2cccc(C(F)(F)F)c2)n1 [Example 37] | 0.0835 µM | 0.148 µM | 0.0288 µM
O=C1NCc2c1cccc2-c1cc(-c2cccc(Cl)c2)n(-c2cccc(C(F)(F)F)c2)n1 [Example 38] | 0.948 µM | 1.18 µM | 0.18 µM
COc1cccc(-n2nc(-c3nccc4c3CNC4=O)cc2-c2ccnc(Cl)c2)c1 [Example 39] | 0.0486 µM | 0.0692 µM | 0.0075 µM
COc1cccc(-n2nc(-c3cccc4c3CNC4=O)cc2-c2ccnc(Cl)c2)c1 [Example 40] | 0.222 µM | 0.499 µM | 0.0517 µM
O=C1NCc2c1cccc2-c1cc(-c2cc(F)cc(Cl)c2)n(-c2cccc(Cl)c2)n1 [Example 41] | 0.0807 µM | 0.152 µM | 0.0112 µM
O=C1NCc2c1ccnc2-c1cc(-c2cccc(OC(F)F)c2)n(-c2ccc(F)c(Cl)c2)n1 [Example 42] | 0.0717 µM | 0.0194 µM | 0.0098 µM
O=C1NCc2c1ccnc2-c1cc(-c2ccc(F)c(OC(F)(F)F)c2)n(-c2cccc(Cl)c2)n1 [Example 43] | 0.674 µM | 0.2 µM | 0.0568 µM
O=C1NCc2c1cccc2-c1cc(-c2ccc(F)c(OC(F)(F)F)c2)n(-c2cccc(Cl)c2)n1 [Example 44] | 1.91 µM | 0.458 µM | 0.533 µM
O=C1NCc2c1ncnc2-c1cc(-c2cc(Cl)cc(OC(F)(F)F)c2)n(-c2cccnc2)n1 [Example 45] | 0.0045 µM | 0.0007 µM | 0.0005 µM
Cc1nc2c(c(-c3cc(-c4cc(Cl)cc(OC(F)(F)F)c4)n(-c4cccnc4)n3)n1)CNC2=O [Example 46] | 0.0023 µM | 0.0004 µM | 0.0004 µM
